What was measured:
A204 = experiment: SRB assay, growth inhibition; assay type: cell-based; details: A204, RMS
Description: (§1) FIG. 3A-3B. (A) The effects of altertoxin II were evaluated using the SRB assay in 6 Ewing sarcoma cell lines as compared to 4 other pediatric solid tumor cells lines. n≥3 independent experiments. (B) The effects of altertoxin II were evaluated by the Houghton laboratory using the alamar blue assay in an additional 6 Ewing sarcoma cell lines and potency compared to the activities in 5 rhabdomyosarcoma cell lines. n=3 independent experiments.
(§2) The effects of altertoxin II were studied in a larger panel of cell lines and the GI50, the concentration that causes 50% inhibition of cell growth, and the TGI, the concentration that caused total growth inhibition, were determined using the sulforhodamine b (SRB assay). The mean GI50 values shown graphically in FIG. 3A. The IC50, the concentration that causes 50% inhibition of cell proliferation, values were determined in a second panel of Ewing sarcoma and rhabdomyosarcoma cell lines using the altar blue assay and these values are presented in Table 2 and the mean in […].

A673 = experiment: SRB assay, growth inhibition; assay type: cell-based; details: A673, EWS
Description: as §1, §2

D283 = experiment: SRB assay, growth inhibition; assay type: cell-based; details: D283, Med
Description: as §1, §2

RD-ES = experiment: SRB assay, growth inhibition; assay type: cell-based; details: EWS
Description: as §1, §2

SH-SY-5Y = experiment: SRB assay, growth inhibition; assay type: cell-based; details: NB
Description: as §1, §2

SK-ES-1 = experiment: SRB assay, growth inhibition; assay type: cell-based
Description: as §1, §2

SK-N-BE2 = experiment: SRB assay, growth inhibition; assay type: cell-based
Description: as §1, §2

ES-2 = experiment: alamar blue assay, proliferation; assay type: cell-based; details: Homo sapiens, ES-2, Ewing Sarcoma, N = 3-6
Description: as §1, §2

ES-4 = experiment: alamar blue assay, proliferation; assay type: cell-based; details: ES-4, Ewing Sarcoma
Description: as §1, §2

ES-7 = experiment: alamar blue assay, proliferation; assay type: cell-based; details: Homo sapiens, ES7, ES-7, Ewing Sarcoma
Description: as §1, §2

ES-8 = experiment: alamar blue assay, proliferation; assay type: cell-based; details: Homo sapiens, ES8, ES-8, Ewing Sarcoma
Description: as §1, §2

EW-8 = experiment: alamar blue assay, proliferation; assay type: cell-based
Description: as §1, §2

Rh18 = experiment: alamar blue assay, proliferation; assay type: cell-based; details: Homo sapiens, Rh18, Rhabdomyosarcoma
Description: as §1, §2

Rh28 = experiment: alamar blue assay, proliferation; assay type: cell-based; details: Rh28, Rhabdomyosarcoma
Description: as §1, §2

Rh30 = experiment: alamar blue assay, proliferation; assay type: cell-based; details: Rh30, Rhabdomyosarcoma
Description: as §1, §2

Rh36 = experiment: alamar blue assay, proliferation; assay type: cell-based; details: Rh36, Rhabdomyosarcoma
Description: as §1, §2

Rh41 = experiment: alamar blue assay, proliferation; assay type: cell-based; details: Homo sapiens, Rh41, Rhabdomyosarcoma
Description: as §1, §2

Rh5 = experiment: alamar blue assay, proliferation; assay type: cell-based; details: Rh5, Rhabdomyosarcoma
Description: as §1, §2

TC-71 = experiment: alamar blue assay, proliferation; assay type: cell-based; details: TC-71, Ewing Sarcoma
Description: as §1, §2

Ewing sarcoma cell lines = experiment: SRB assay panel, selectivity Ewing sarcoma vs other pediatric solid tumor cell lines; assay type: cell-based; details: mean GI50, 6 Ewing sarcoma cell lines
Description: as §1, §2

A673 Ewing sarcoma cells = experiment: 53BP1 foci immunofluorescence; assay type: cell-based; details: 10 nM and 100 nM, within 6 h
Description: FIG. 8A-8B. The effects of 10 and 100 nM altertoxin II (ATXII) on 53BP1 foci were evaluated following a 6 h treatment of A673 cells by indirect immunofluorescence. (B) Immunofluorescence of R-loop marker S9.6 in TC-32 cells 24 h after ATXII treatment. Arrows indicate R-loops within nuclei.
Multiple investigators have shown that Ewing sarcoma cells undergo replication stress and R-loop accumulation.

[1] = tested on: RD-ES Ewing sarcoma cells; experiment: DNA damage response immunoblot (Chk1, Chk2, p53); assay type: cell-based
Description: FIG. 9A-9B. Altertoxin II causes phosphorylation of CHK1 and 2 and p53 in Ewing sarcoma cells. Ewing sarcoma cells, A673, RD-ES, SK-ES-1, or rhabdomyosarcoma A204 cells were treated with altertoxin II at the concentrations indicated for 6 h (A) or 24 h (B) and whole-cell lysates prepared and proteins separated by SDS-PAGE. These samples were analyzed by immunoblotting for total and phosphorylated Chk1 and 2 and p53 (A).
Downstream activation of DNA damage response proteins by altertoxin II was subsequently evaluated.

[2] = tested on: HepG2 hepatocellular carcinoma cells; experiment: Altertoxin II concentration in cell media by LC/MS; assay type: in vitro ADME; details: after 2 h
Description: (§3) An experiment was conducted to test this possibility. TC-32 Ewing sarcoma and Rh30 rhabdomyosarcoma cells were treated with 100 nM ATX for 6 h and the conditioned media was then applied to the resistant Rh30 cells. […] Differences in the altertoxin II concentration were measured by LC/MS in media from TC-32 and HepG2 hepatocellular carcinoma cells.

TC-32 cells = experiment: Altertoxin II concentration in cell media by LC/MS; assay type: in vitro ADME; details: TC-32 media, after 2 h
Description: as §3

[3] = tested on: A673 Ewing sarcoma murine xenograft; experiment: A673 xenograft antitumor efficacy; assay type: in vivo, Mice
Description: FIG. 11. Antitumor efficacy of ATXII against A673 xenograft model. Mice were injected i.p. with 20 mg/kg. ATXII on days 1, 3, 5, 8, 10 and 12, or 40 mg/kg on days 1, 3, and 5.
Studies were conducted to evaluate the in vivo efficacy of altertoxin II in an A673 Ewing sarcoma murine xenograft model (FIG. 11). Mice bearing A673 xenograft tumors were treated with 20 mg/kg altertoxin II on days 1, 3, 5, 8 and 10, or with 40 mg/kg altertoxin II on days 1, 3 and 5.

Molecule O=C1CC[C@]2(O)c3c(ccc(O)c31)-c1ccc(O)c3c1[C@H]2[C@H]1O[C@H]1C3=O [altertoxin II] has a TGI (A204) of 1500 nM, a GI50 (A204; Homo sapiens) of 960 nM and a TGI (A673) of 139 nM. For the same molecule, the GI50 (A673; Homo sapiens) was 28 nM, the GI50 (D283) was 940 nM and the TGI (D283) was 1700 nM. It also gave a GI50 (RD-ES; n ≥ 3) of 14 nM, a TGI (RD-ES; total growth inhibitory concentration) of 60 nM and a GI50 (SH-SY-5Y; Homo sapiens, SH-SY5Y) of 560 nM. For the same molecule, the TGI (SH-SY-5Y) was 920 nM, the GI50 (SK-ES-1; Homo sapiens, SK-ES1, SK-ES-1, EWS) was 35 nM and the TGI (SK-ES-1; SK-ES-1, EWS) was 151 nM. It also gave a GI50 (SK-N-BE2; Homo sapiens, SKNBE2, SK-N-BE2, NB) of 1000 nM, a TGI (SK-N-BE2; SK-N-BE2, NB) of 2000 nM and an IC50 (ES-2) of 23 ± 4 nM. It also gave an IC50 (ES-4) of 20 ± 2 nM, an IC50 (ES-7) of 3 ± 1 nM and an IC50 (ES-8) of 7 ± 1 nM. For the same molecule, the IC50 (EW-8; EW8, EW-8, Ewing Sarcoma, alamar blue) was 6.5 ± 0.3 nM, the “sensitivity of EW-8 cell line” value (EW-8; EW-8 is resistant to PARP1 inhibitors) was “highly sensitive” and the IC50 (Rh18) was 990 ± 120 nM. The IC50 (Rh28) was 790 ± 90 nM, the IC50 (Rh30) was 750 ± 60 nM and the IC50 (Rh36) was 1030 ± 210 nM. For the same molecule, the IC50 (Rh41) was 1130 ± 300 nM, the IC50 (Rh5) was 1050 ± 230 nM and the IC50 (TC-71) was 4.6 ± 0.5 nM. For the same molecule, the “selectivity of Ewing sarcoma cell lines vs other pediatric solid tumor cell lines” value (Ewing sarcoma cell lines) was 58 fold, the 53BP1 foci (A673 Ewing sarcoma cells) was “nuclear foci were noted” and the “phosphorylation of p53” value [1] was “also observed in RD-ES cells”. The “phosphorylation of Chk1 and Chk2” value ([1]; 10-300 nM, within 6 h) was “caused phosphorylation of checkpoint kinase 1 and 2”, the “altertoxin II remaining in media” value [2] was “no altertoxin II was detectable” and the “altertoxin II remaining in media” value (TC-32 cells) was “approximately 25%”. The tumor growth ([3]; 20 mg/kg i.p. days 1, 3, 5, 8 and 10) was “trend of modest tumor growth inhibition”, the “tumor volume vs control on day 14” value ([3]; 20 mg/kg, day 14) was “no statistically significant difference” and the tumor growth ([3]; 40 mg/kg i.p. days 1, 3 and 5, 14-day trial) was “significant inhibition of tumor growth”. The “tumor size vs control on day 14” value ([3]; 40 mg/kg, day 14, p=0.0001) was “significantly smaller than control tumors” and the therapeutic window ([3]; A673 xenograft) was “acceptable therapeutic window”.

From patent US10874631B2, “Altertoxin II as a selective inhibitor of Ewing family of tumor cells” (priority 2016, dated 2020)
